Reference: patent US20220030866A1, “CONJUGATES OF AUXIN ANALOGS” (The State of Israel, Ministry of Agriculture & Rural …, priority 2019, published 2022)

System: mung bean cuttings
Assay: rooting of mung bean cuttings (number of adventitious roots per cutting)
Assay type: in vivo
Details: for rooting of mung bean cuttings (number of roots per cutting): Table 1, water control 29.6
Experimental: Mung bean cuttings have been used for many years as a model for assessing the effect of plant hormones and synthetic chemicals on the rooting process. In the present study, this system was used to ascertain activity of conjugates in inducing adventitious root (AR) formation, and to evaluate the rate of conjugate hydrolysis that releases the free active auxin. […] The rooting activity in this system is determined by the number of adventitious roots per cutting.
The mung bean model was used to examine the activity of conjugates of three phenoxy acids, 4-CPA, MCPA, and 2-DP, on rooting. For comparison, plants were treated with (unconjugated) IBA or with 2-DP conjugated to glycine methyl ester (Gly-ME).

SMILES	rooting of mung bean cuttings (number of roots per cutting) (50 μM)	rooting of mung bean cuttings (number of roots per cutting) (10 μM)	effect on AR formation in mung bean cuttings, in words (tested at 2, 10 or 50 μM)
Cc1ccc(NC(=O)COc2ccc(Cl)cc2)nc1 [Compound 1c]	0		
COC(=O)c1ccnc(NC(=O)COc2ccc(Cl)cc2)c1 [Compound 1d]	0	0	
Cc1ccccc1NC(=O)COc1ccc(Cl)cc1 [Compound 1e]	0		
CC(Oc1ccc(Cl)cc1Cl)C(=O)O (stereo not shown) [Compound 2-DP, 2-(2,4-dichlorophenoxy)propionic acid, reference compound]			positively correlated to dose
Cc1cc(Cl)ccc1OCC(=O)NCCO [Compound 2a]	72.1	34.7	
COC(=O)CCNC(=O)COc1ccc(Cl)cc1C [Compound 2b]	63.2	94.8	
Cc1ccc(NC(=O)COc2ccc(Cl)cc2C)nc1 [Compound 2c]	0	0	
COC(=O)c1ccnc(NC(=O)COc2ccc(Cl)cc2C)c1 [Compound 2d]	0	64.3	
Cc1ccccc1NC(=O)COc1ccc(Cl)cc1C [Compound 2e]	0	23.6	
Cc1ccc(NC(=O)COc2ccc(Cl)cc2C)cc1 [Compound 2f]	0	0	
COC(=O)c1ccc(NC(=O)COc2ccc(Cl)cc2C)cc1 [Compound 2g]	0	0	
CC(Oc1ccc(Cl)cc1Cl)C(=O)NCCO (stereo not shown) [Compound 3a]	24.1	26.4	
COC(=O)c1ccnc(NC(=O)C(C)Oc2ccc(Cl)cc2Cl)c1 (stereo not shown) [Compound 3d]	85.8	41.6	
Cc1ccccc1NC(=O)C(C)Oc1ccc(Cl)cc1Cl (stereo not shown) [Compound 3e]	41.7	37.3	
